In patent publication US12698342B2, “Therapy for drug-resistant cancer by administration of anti-HER2 antibody/drug conjugate” (DAIICHI SANKYO COMPANY, LIMITED, priority 2016, dated 2026):

Columns and labels:
topoisomerase I = biological target: T1, topoisomerase I (Homo sapiens, UniProt P11387); conditions: cited from earlier work
T1 sequence (P11387 1-765): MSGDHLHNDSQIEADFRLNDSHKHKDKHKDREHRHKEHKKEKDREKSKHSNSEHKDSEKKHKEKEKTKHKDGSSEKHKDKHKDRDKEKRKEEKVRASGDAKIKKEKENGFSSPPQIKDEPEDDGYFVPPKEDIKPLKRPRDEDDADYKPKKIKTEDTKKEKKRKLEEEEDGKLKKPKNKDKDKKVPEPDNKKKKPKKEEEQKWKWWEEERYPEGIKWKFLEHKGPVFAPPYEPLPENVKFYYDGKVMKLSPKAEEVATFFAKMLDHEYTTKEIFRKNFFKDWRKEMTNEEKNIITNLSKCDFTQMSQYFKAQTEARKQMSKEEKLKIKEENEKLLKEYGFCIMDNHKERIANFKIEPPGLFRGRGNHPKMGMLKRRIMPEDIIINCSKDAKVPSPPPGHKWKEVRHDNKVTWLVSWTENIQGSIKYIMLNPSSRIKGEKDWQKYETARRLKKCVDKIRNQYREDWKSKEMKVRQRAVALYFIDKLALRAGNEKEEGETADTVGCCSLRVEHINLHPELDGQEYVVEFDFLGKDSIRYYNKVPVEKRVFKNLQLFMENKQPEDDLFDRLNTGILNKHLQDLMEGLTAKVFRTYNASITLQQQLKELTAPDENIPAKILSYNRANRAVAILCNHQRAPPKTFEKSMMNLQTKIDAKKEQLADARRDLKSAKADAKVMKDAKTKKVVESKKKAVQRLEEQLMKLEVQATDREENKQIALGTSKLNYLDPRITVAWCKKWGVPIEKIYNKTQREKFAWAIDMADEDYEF

[1] = test system: HER2-positive human breast cancer ST1616B/TDR; conditions: mouse, in vivo
Method: (§1) Mouse: 6- to 12-week-old female immunodeficient Crl:Nu(Ncr)-Foxn1^Nu mice (Charles River Laboratories Japan, Inc.) were subjected to the experiment.
(§2) Assay and calculation expression: The major axis and minor axis of tumor were measured twice a week by using an electronic digital caliper, and the tumor volume (mm^3) was calculated. The calculation expression is as shown below. Tumor volume (mm^3)=0.52×Major axis (mm)×[Minor axis ([…])]^2
(§3) Tumor excised from a patient with HER2-positive breast cancer that acquired resistance after treatment with T-DM1 was maintained at several passages by transplantation to female immunodeficient mice. […] ST1616B/TDR is tumor derived from a patient who received T-DM1 by continuous administration for 13 months, and ST1360B/TDR is a tumor derived from a patient who received T-DM1 by continuous administration for 3 months.
(§4) A tumor section of the solid tumor was subcutaneously transplanted to the side of the body of each female immunodeficient mouse, and the mice were randomly grouped when the tumor volume reached about 200 mm^3.

[2] = test system: HER2-positive human breast cancer ST1360B/TDR; conditions: mouse, in vivo
Method: as §1, §2, §3, §4

[3] = test system: Breast cancer or gastric adenocarcinoma/esophagogastric junction adenocarcinoma; conditions: human, in vivo
Excerpt: Open-label, Phase 1 dose escalation study.
Part 1 study: Dose escalation study (conducted in Japan)
Breast cancer or gastric adenocarcinoma/esophagogastric junction adenocarcinoma
Objective response rate (ORR; complete response (CR)+partial response (PR)).
Disease control rate (DCR; CR+PR+stable disease (SD)).

Question: For `CC[C@@]1(O)C(=O)OCc2c1cc1n(c2=O)Cc2c-1nc1cc(F)c(C)c3c1c2[C@@H](N)CC3` [exatecan, (1S,9S)-1-amino-9-ethyl-5-fluoro-1,2,3,9,12,15-hexahydro-9-hydroxy-4-methyl-10H,13H-benzo[de]pyrano[3′,4′:6,7]indolizino[1,2-b]quinolin-10,13-dione], which “inhibitory activity on topoisomerase I” value (topoisomerase I; compared with SN-38 and topotecan) is on record?
Answer: higher than SN-38

Question: Which “topoisomerase I inhibitory effect” value (topoisomerase I; Ogitani Y. et al., Clinical Cancer Research, 2016) does the source give for `CC[C@@]1(O)C(=O)OCc2c1cc1n(c2=O)Cc2c-1nc1cc(F)c(C)c3c1c2[C@@H](NC(=O)CO)CC3` [Compound 1] here?
Answer: confirmed to have a topoisomerase I inhibitory effect

Question: For T-DM1, which “growth of the tumor (tumor volume)” value [1] is on record?
Answer: did not inhibit the growth

Question: What about the “growth of the tumor (tumor volume)” value [2] of the same compound?
Answer: did not inhibit the growth

Question: And the DCR [3]?
Answer: 64%

Question: And the ORR [3]?
Answer: 18%
